The subject of series [1] is ABA-responsive genes ZmLEA, Zm.12309.1.S and ZmCOR410. Put plainly: qRT-PCR of ABA-responsive genes in maize. In kind it is in vivo, Maize (cv. Gold rush). Particulars: maize 2-week-old seedlings, roots dipped in 100 μM overnight, aerial shoot tissues. The procedure:
The effects of (-)-Abz-[…] were also determined relative to stomatal apertures. Arabidopsis grown in soil pots underwent moderate drought stress under the optimal growth conditions of 22 °C and 60% relative humidity. Under these growth conditions, the leaf surface temperature of the mock-treated controls was 19.5 °C, which was lower than the surrounding atmospheric temperature because of transpirational water loss (Fig. 6a,b)[30]. […] Finally, we examined the effects of (-)-Abz-[…] on drought tolerance under more practical conditions. Three-week-old Arabidopsis were sprayed with an aqueous solution containing 50 μM (-)-Abz-[…]. Water was not supplied for 12 days, and then the plants were rehydrated. […] We also tested the effects of (-)-Abz-[…] on a monocot crop, maize, to evaluate whether (-)-Abz-[…] affected stomatal movement and enhanced ABA response across plant species. […] Thus, the effects of (-)-Abz-[…] were not restricted to the model plant Arabidopsis. Figure 7 Effects of (-)-Abz-[…] on maize. (a) Thermal images of the leaf surface temperatures of (-)-Abz-[…]-treated maize plants. (b) Leaf surface temperatures of (-)-Abz-[…]-treated maize plants. The stomatal conductance (c) and transpiration rate (d) in (-)-Abz-[…]-treated maize at different light intensities. […] Values are means with s.d. (n = 4 for leaf surface temperature, n = 3 for stomatal conductance and transpiration rate). […]
Background: Real-time PCR tracks product formation cycle by cycle.

The target of series [2] is T1, Arabidopsis recombinant CYP707A3 (ABA 8′-hydroxylase) (Arabidopsis thaliana, UniProt Q9FH76).
T1 construct: made in house; host or cells: Escherichia coli (microsomal/membrane fraction)
T1 sequence (Q9FH76 1-463): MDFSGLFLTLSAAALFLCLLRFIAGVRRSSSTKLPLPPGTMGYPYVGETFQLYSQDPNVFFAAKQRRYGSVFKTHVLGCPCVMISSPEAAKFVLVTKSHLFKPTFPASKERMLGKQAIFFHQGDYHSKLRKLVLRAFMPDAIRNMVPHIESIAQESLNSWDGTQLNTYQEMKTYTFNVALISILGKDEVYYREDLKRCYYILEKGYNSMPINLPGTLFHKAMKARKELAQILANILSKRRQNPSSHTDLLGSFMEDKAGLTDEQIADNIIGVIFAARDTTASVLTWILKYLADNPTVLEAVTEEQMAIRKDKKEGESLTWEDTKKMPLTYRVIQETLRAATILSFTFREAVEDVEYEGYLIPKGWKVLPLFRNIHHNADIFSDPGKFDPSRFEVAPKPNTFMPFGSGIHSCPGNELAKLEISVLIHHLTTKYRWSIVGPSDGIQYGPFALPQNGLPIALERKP
Put plainly: CYP707A3 inhibition assay (decrease of enzymatic product PA). In kind it is biochemical. The note with it: Arabidopsis recombinant CYP707A3 expressed in E. coli. The procedure: The inhibitory activities of Abz-T compounds against ABA 8′-hydroxylase were examined using recombinant Arabidopsis CYP707A3 co-expressed with Arabidopsis P-450 reductase (ATR1) in Escherichia coli[22]. The activity levels were evaluated based on the decrease in the amount of the enzymatic product, PA.
Reactions were initiated by adding NADPH, stopped by the addition of 25 μL of 1 M NaOH and then acidified with 50 μL of 1 M HCl. Reaction products were extracted by loading the mixture onto an Oasis HLB cartridge (1 mL, 30 mg; Waters Corp., Milford, MA, USA) and were washed with 1 mL of 10% MeOH in H2O (v/v) containing 1% acetic acid (AcOH, v/v). The enzyme products were then eluted with 1 mL of MeOH containing 1% AcOH, and the eluate was concentrated in vacuo. Each dried sample was then dissolved in 50 μL of MeOH, and a 20-μL volume was subjected to HPLC (Prominence; Shimadzu Corp., Kyoto, Japan). HPLC conditions were as follows: the octadecylsilyl column was composed of Hydrosphere C18 (150 × 6.0 mm, YMC Co., Ltd., Kyoto, Japan), and the solvent comprised 17% acetonitrile (MeCN) in H2O containing 0.05% AcOH (v/v). The flow rate was 1.0 mL min^−1, and detection was at 254 nm. Enzyme activity was evaluated by determining the amount of PA in control experiments prior to taking each set of measurements. The inhibition constants were determined using the Enzyme Kinetics module of the SigmaPlot 10 software (Systat Software, Inc., San Jose, CA, USA) after determining the inhibition mode by plotting the reaction velocity in the presence and absence of the inhibitor on a double-reciprocal plot. The inhibition ratio was defined as [(A − B)/A] × 100, where A = the amount of PA when the inhibitor was absent from the reaction mixture (control), and B = the amount of PA when the inhibitor was present. All of the tests were conducted at least three times.

Usually IC50 stands for the point on the concentration scale where inhibition reaches its midpoint. By Ki is commonly meant a dissociation constant, usually derived from enzyme kinetics or from competition with a known ligand. Consider abscinazole-E3M [(−)-6], for which, in series [1], the “Expression of ABA-responsive genes ZmLEA, Zm.12309.1.S and ZmCOR410” value was “induced the expression of ABA-responsive genes”. In series [2] (5 μM ABA as substrate, read-out: CYP707A IC50), the IC50 was determined as 64 nM. Also, the inhibitory constant (Ki) in series [2] (ABA 1–64 μM, read-out: CYP707A KI) worked out at 35 nM.

The record behind these values is paper PMC5107945, “Abscinazole-E3M, a practical inhibitor of abscisic acid 8′-hydroxylase for improving drought tolerance” (Scientific Reports, 2016).
